From patent US20240269128A1, “COMPOUNDS FOR TREATING OR PREVENTING ALZHEIMER'S DISEASE” (THE UNITED STATES OF AMERICA, as represented by the …, priority 2021, published 2024)

Experiments:
[1] = system: SH-SY5Y-hTau441(V337M/R406W) cells; assay: Tau phosphorylation assay (Phospho(Thr231)/Total Tau); assay type: cell-based, human; settings: 25 μM HCQ
Procedure: Tau Phosphorylation: SH-SY5Y-hTau441(V337M/R406W) cells were maintained in culture medium (DMEM medium, 10% FCS, 1% NEAA, 1% L-Glutamine, 100 g/mL Gentamycin, 300 μg/mL Geneticin G-418) and differentiated with 10 μM retinoic acid (RA) for 5 days changing medium every 2 to 3 days. Prior to the treatment, cells were seeded onto 24-well plates at a cell density of 2×10^5 cells per well (DIV1). Drug compounds were applied on DIV2. After 24 h of incubation (DIV3), cells on 24-well plates were harvested in 60 μL RIPA-Buffer [50 mM Tris pH 7.4, 1% Nonidet P40, 0.25% Na-deoxy-cholate, 150 mM NaCl, 1 mM EDTA supplemented with freshly added 1 μM NaF, 0.2 mM Na-ortho-vanadate, 80 μM Glycerophosphate, protease (Calbiochem) and phosphatase (Sigma) inhibitor cocktail]. Protein concentration was determined by BCA assay (Pierce, ThermoFisher) and samples were adjusted to a uniform total protein concentration. Total Tau and phosphorylated Tau were determined by immunosorbent assay from Mesoscale Discovery (Phospho(Thr231)/Total Tau Kit K15121D, Mesoscale Discovery).
Tau phosphorylation: SH-SY5Y-hTau441(V337M/R406W) cells were maintained in culture medium (DMEM medium, 10% FCS, 1% NEAA, 1% L-Glutamine, 100 μg/mL Gentamycin, 300 μg/mL Geneticin G-418) and differentiated with 10 μM retinoic acid (RA) for 5 days changing medium every 2 to 3 days. Prior to the treatment, cells were seeded onto 24-well plates at a cell density of 2×10^5 cells per well (DIV1). HCQ (25 μM) was applied on DIV2. After 24 h of incubation (DIV3), cells on 24-well plates were harvested in 60 μL RIPA-Buffer [50 mM Tris pH 7.4, 1% Nonidet P40, 0.25% Na-deoxy-cholate, 150 mM NaCl, 1 mM EDTA supplemented with freshly added 1 μM NaF, 0.2 mM Na-ortho-vanadate, 80 μM Glycerophosphate, protease (Calbiochem) and phosphatase (Sigma) inhibitor cocktail]. Protein concentration was determined by BCA assay (Pierce, ThermoFisher) and samples were adjusted to a uniform total protein concentration. Total Tau and phosphorylated Tau were determined by immunosorbent assay from Mesoscale Discovery (Phospho(Thr231)/Total Tau Kit K15121D, Mesoscale Discovery).
Tau Phosphorylation: SH-SY5Y-hTau441(V337M/R406W) cells were maintained in culture medium [DMEM medium, 10% FCS, 1% nonessential amino acids (NEAA), 1% l-glutamine, gentamycin (100 μg/ml), and geneticin G-418 (300 μg/ml)] and differentiated with 10 μM retinoic acid for 5 days changing medium every 2 to 3 days. […] Protein concentration was determined by BCA assay (Pierce, Thermo Fisher Scientific, Waltham, MA), and samples were adjusted to a uniform total protein concentration. Total tau and phosphorylated tau were determined by immunosorbent assay from Mesoscale Discovery [Phospho(Thr231)/Total Tau Kit K15121D, Mesoscale Discovery, Meso Scale Diagnostics]. […]

[2] = system: Primary cortical neurons; assay: Cell death due to trophic factor withdrawal; assay type: cell-based, mouse; settings: HCQ 0.25, 2.5 and 25 μM
Procedure: Cell death due to trophic factor withdrawal: Primary cortical neurons from E18 C57Bl/6 mice were prepared as previously described. On the day of preparation (DIV1), cortical neurons were seeded on poly-D-lysine pre-coated 96-well plates at a density of 3×10^4 cells per well. Every 4-6 days, a half medium exchange using full medium (Neurobasal, 2% B-27, 0.5 mM glutamine, 1% Penicillin-Streptomycin) was carried out. On DIV8, a full medium exchange to B-27 free medium (Neurobasal, 0.5 mM glutamine, 1% Penicillin-Streptomycin) was performed and HCQ (0.25 μM, 2.5 μM and 25 μM) was applied thereafter. […]
YO-PRO™-1 (Invitrogen; Y3603) assay was carried out to detect apoptotic cells in combination with Propidium iodide (PI; P4864 Sigma Aldrich) staining for necrotic cells. […] Plate was measured at the multimode-reader (Cytation 5, BioTek).
MTT solution was added to each well in a final concentration of 0.5 mg/mL. […] Optical density was measured with a Cytation 5 (Biotek) multimode reader at wavelength 570 nm. Values were calculated as percent of control values (vehicle control or lesion control).
The Lactate dehydrogenase (LDH) toxicity assay was carried out on the supernatants collected after treatment using the Cytotoxicity Detection Kit (Roche Diagnostics, Cat. No: 11 644 793 001). […] Absorbance was measured at 492 nm and 620 nm as reference wavelength with a Cytation 5 (Biotek) multimode reader. […]

[3] = system: Primary hippocampal neurons; assay: Neurite outgrowth and neurogenesis; assay type: cell-based, mouse; settings: HCQ 25, 2.5 or 0.25 μM
Procedure: Neurite outgrowth and neurogenesis: Primary hippocampal neurons were prepared from E18.5 timed pregnant C57BL/6JRccHsd mice as previously described. Cells were seeded in poly-D-lysine pre-coated 96-well plates at a density of 2.6×10^4 cells/well in (Neurobasal, 2% B-27, 0.5 mM glutamine, 25 μM glutamate, 1% Penicillin-Streptomycin). Directly on DIV1 HCQ (TargetMol, T0951) at 25 μM, 2.5 μM or 0.25 μM concentrations or vehicle control was applied. On DIV2 10 μM Bromodeoxyuridine (BrdU; B5002 Sigma Aldrich) was added and cells were fixed after additional 24 h. Cells were permeabilized with 0.1% Triton-X and incubated with primary Beta Tubulin Isotype III (T8660, Sigma Aldrich) and BrdU antibodies (MAS250c, AHrlan-Sera Lab) overnight at 4° C. Afterwards cells were washed two times with PBS and incubated with fluorescently labeled secondary antibodies and DAPI for 1.5 hour at RT in the darkness. Cells were rinsed three times with PBS imaged with the Cytation 5 Multimode reader (BioTek) at 10× magnification (6 images per well). BrdU positive cells were counted as marker for neurogenesis and Beta Tubulin Isotype III signal was used for macro-based quantification of neurite outgrowth.

## CCN(CCO)CCCC(C)Nc1ccnc2cc(Cl)ccc12 (stereo not shown) [HCQ, hydroxychloroquine]
[1]
  phosphorylated tau (ptau231): reduced
  total tau: reduced
[2]
  cell death in response to trophic factor withdrawal: No effects
[3]
  neurite outgrowth and neurogenesis: No effects
